Assay results as given in ChEMBL document CHEMBL5150076, “Discovery of Novel Orally Bioavailable Triazoles with Potent and Broad-Spectrum Antifungal Activity In Vitro and In Vivo” (J Med Chem, 2022).
Values after ≈ are worked out from the molar mass of the structure shown. Active and inactive are the calls of the source. No cut-off for these calls is given here.

Columns and labels:
[1] = tested on: Aspergillus fumigatus; assay: Antifungal activity against Aspergillus fumigatus 7544 infected in ICR mouse assessed as survival rate at 60 mg/kg, po qd infected with fungus for 2 hrs prior to compound addition for 7 days and measured for 20 days; type: functional; settings: time 20 day
[2] = tested on: Cryptococcus neoformans; assay: Antifungal activity against Cryptococcus neoformans H99 infected in po dosed ICR mouse assessed as increase in survival infected with fungus for 2 hrs prior to compound addition for 7 days and measured for 20 days; type: functional, organism-based; settings: dose 0.5-5 mg/kg, time 20.0 day, DDE = dose-dependent effect
[3] = molecular target: T1, Lanosterol 14-alpha demethylase (Candida albicans (strain SC5314 / ATCC MYA-2876) (Yeast), UniProt P10613); assay: Inhibition of CYP51 in Candida albicans SC5314 assessed as ergosterol level at 0.5 ug/ml measured after 12 hrs by GC-MS analysis (reference value: 72.58%); parameters: scale not given: the % may be the effect or the level left; settings: at 0.5 µg/mL
T1 sequence (P10613 whole entry): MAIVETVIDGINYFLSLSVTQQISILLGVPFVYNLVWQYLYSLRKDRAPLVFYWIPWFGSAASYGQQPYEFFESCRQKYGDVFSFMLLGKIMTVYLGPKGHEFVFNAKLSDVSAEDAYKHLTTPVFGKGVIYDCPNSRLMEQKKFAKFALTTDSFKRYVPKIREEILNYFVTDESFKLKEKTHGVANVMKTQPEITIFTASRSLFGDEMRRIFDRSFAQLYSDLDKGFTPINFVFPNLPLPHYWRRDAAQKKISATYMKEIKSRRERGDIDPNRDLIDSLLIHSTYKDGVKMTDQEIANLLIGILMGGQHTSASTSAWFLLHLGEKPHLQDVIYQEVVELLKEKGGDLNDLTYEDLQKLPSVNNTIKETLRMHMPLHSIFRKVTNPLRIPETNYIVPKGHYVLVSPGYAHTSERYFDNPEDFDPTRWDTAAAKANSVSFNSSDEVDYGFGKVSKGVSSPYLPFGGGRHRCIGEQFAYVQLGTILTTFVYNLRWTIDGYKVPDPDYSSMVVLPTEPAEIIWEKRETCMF

[4] = tested on: Candida albicans; assay: Inhibition of biofilm formation in Candida albicans SC5314 at 0.5 ug/ml relative to control; type: functional
[5] = tested on: Pichia kudriavzevii; assay: Antifungal activity against Candida krusei 467; type: functional
[6] = tested on: Candida albicans; assay: Antifungal activity against Candida albicans 28#; type: functional
[7] = tested on: Pichia kudriavzevii; assay: Antifungal activity against Candida krusei 463; type: functional
[8] = tested on: Candida albicans; assay: Antifungal activity against Candida albicans 162; type: functional
[9] = AUC(0 to infinity) in Sprague-Dawley rat at 5 mg/kg, po by LC-MS analysis; type: ADME, organism-based; parameters: time infinity, dose 5 mg/kg, route po; settings: in vivo
[10] = molecular target: T1, Lanosterol 14-alpha demethylase; assay: Inhibition of CYP51 in Candida albicans SC5314 assessed as lanosterol level at 0.0625 ug/ml measured after 12 hrs by GC-MS analysis (reference value: 2.18%); parameters: scale not given: the % may be the effect or the level left; settings: dose 0.0625 µg/ml
[11] = tested on: Candida parapsilosis; assay: Antifungal activity against Candida parapsilosis 22019; type: functional; settings: Lodderomyces parapsilosis
[12] = AUC(0 to infinity) in Sprague-Dawley rat at 2 mg/kg, iv by LC-MS analysis; type: ADME, organism-based; parameters: time infinity, dose 2 mg/kg, route iv; settings: in vivo
[13] = molecular target: T1, Lanosterol 14-alpha demethylase; assay: Inhibition of CYP51 in Candida albicans SC5314 assessed as ergosterol level at 0.0625 ug/ml measured after 12 hrs by GC-MS analysis (reference value: 72.58%); parameters: scale not given: the % may be the effect or the level left; settings: dose 0.0625 µg/ml
[14] = tested on: Nannizzia gypsea; assay: Antifungal activity against Microsporum gypseum; type: functional
[15] = tested on: Candida albicans; assay: Antifungal activity against Candida albicans SC5314 infected in ICR mouse assessed as median survival time at 0.25 mg/kg, po qd infected with fungus for 2 hrs prior to compound addition for 7 days and measured for 20 days; type: functional; settings: time 20 day
[16] = tested on: Cryptococcus neoformans; assay: Antifungal activity against Cryptococcus neoformans H99 infected in ICR mouse assessed as median survival time at 5 mg/kg, po qd infected with fungus for 2 hrs prior to compound addition for 7 days and measured for 20 days; type: functional; settings: time 20 day
[17] = Induction of drug resistance in Candida albicans SC5314 assessed as increase in MIC after 26 days (reference value: 0.0313 microg/ml); type: functional; settings: SC5314, 624 h, time 26 day
[18] = molecular target: T1, Lanosterol 14-alpha demethylase; assay: Inhibition of CYP51 in Candida albicans SC5314 assessed as eburicol level at 0.0625 ug/ml measured after 12 hrs by GC-MS analysis (reference value: 0.00%); parameters: scale not given: the % may be the effect or the level left; settings: dose 0.0625 µg/ml
[19] = Half life in Sprague-Dawley rat at 2 mg/kg, iv by LC-MS analysis; type: ADME, organism-based; settings: in vivo
[20] = tested on: Candida albicans; assay: Antifungal activity against Candida albicans 305; type: functional
[21] = tested on: Candida albicans; assay: Antifungal activity against Candida albicans 25#; type: functional
[22] = tested on: Candida parapsilosis; assay: Antifungal activity against Candida parapsilosis 660; type: functional; settings: Lodderomyces parapsilosis
[23] = tested on: Candida tropicalis; assay: Antifungal activity against Candida tropicalis ATCC750; type: functional
[24] = tested on: Candida albicans; assay: Inhibition of biofilm formation in Candida albicans SC5314; type: functional, organism-based; settings: dose 0.002-0.5 µg/ml, DDE = dose-dependent effect
[25] = tested on: Candida albicans; assay: Antifungal activity against Candida albicans 100 infected in ICR mouse assessed as median survival time at 0.25 mg/kg, po qd infected with fungus for 2 hrs prior to compound addition for 7 days and measured for 20 days; type: functional; settings: time 20 day
[26] = tested on: Candida albicans; assay: Antifungal activity against Candida albicans 100 infected in ICR mouse assessed as delay in mortality at 0.25 mg/kg, po qd infected with fungus for 2 hrs prior to compound addition for 7 days and measured for 20 days; type: functional, organism-based; settings: time 20.0 day
[27] = tested on: Nakaseomyces glabratus; assay: Antifungal activity against Candida glabrata 537; type: functional
[28] = tested on: Cryptococcus neoformans; assay: Antifungal activity against Cryptococcus neoformans H99 incubated for 72 hrs by microbroth dilution method; type: functional
[29] = Cytotoxicity against HUVEC assessed as cell viability at 64 ug/ml incubated for 24 hrs by CCK-8 assay; type: toxicity, cell-based; settings: human, HUVEC cells, dose 64 µg/ml, read-out: Activity
[30] = tested on: [Candida] auris; assay: Antifungal activity against Candida auris 791; type: functional; settings: Candidozyma auris
[31] = tested on: Cryptococcus neoformans; assay: Antifungal activity against Cryptococcus neoformans 32605; type: functional
[32] = Tmax in Sprague-Dawley rat at 5 mg/kg, po by LC-MS analysis; type: ADME, organism-based; settings: in vivo
[33] = tested on: Cryptococcus neoformans; assay: Antifungal activity against Cryptococcus neoformans H99 infected in ICR mouse assessed as median survival time at 2 mg/kg, po qd infected with fungus for 2 hrs prior to compound addition for 7 days and measured for 20 days; type: functional; settings: time 20 day
[34] = tested on: Cryptococcus neoformans; assay: Antifungal activity against Cryptococcus neoformans H99 infected in ICR mouse assessed as median survival time at 0.5 mg/kg, po qd infected with fungus for 2 hrs prior to compound addition for 7 days and measured for 20 days; type: functional; settings: time 20 day
[35] = Half life in Sprague-Dawley rat at 5 mg/kg, po by LC-MS analysis; type: ADME, organism-based; settings: in vivo
[36] = tested on: [Candida] auris; assay: Antifungal activity against Candida auris BS12372; type: functional; settings: Candidozyma auris
[37] = tested on: Cryptococcus neoformans; assay: Antifungal activity against Cryptococcus neoformans H99 infected in ICR mouse assessed as median survival time at 1 mg/kg, po qd infected with fungus for 2 hrs prior to compound addition for 7 days and measured for 20 days; type: functional; settings: time 20 day
[38] = Induction of hemolysis in rabbit RBC at 64 ug/ml incubated for 1 hr; type: toxicity, cell-based, Oryctolagus cuniculus, Erythrocyte; settings: red blood cells, dose 64 µg/ml, read-out: Activity
[39] = tested on: Trichophyton rubrum; assay: Antifungal activity against Trichophyton rubrum cmccftla; type: functional
[40] = tested on: Aspergillus fumigatus; assay: Antifungal activity against Aspergillus fumigatus 7544 incubated for 48 hrs by microbroth dilution method; type: functional
[41] = tested on: Candida albicans; assay: Inhibition of biofilm formation in Candida albicans SC5314 at 0.002 ug/ml relative to control; type: functional
[42] = tested on: Candida albicans; assay: Antifungal activity against Candida albicans SC5314 infected in ICR mouse assessed as median survival time at 0.5 mg/kg, po qd infected with fungus for 2 hrs prior to compound addition for 7 days and measured for 20 days; type: functional; settings: time 20 day
[43] = tested on: [Candida] auris; assay: Antifungal activity against Candida auris D12; type: functional; settings: Candidozyma auris
[44] = molecular target: T1, Lanosterol 14-alpha demethylase; assay: Inhibition of CYP51 in Candida albicans SC5314 assessed as sterol level at 0.0625 ug/ml measured after 12 hrs by GC-MS analysis (reference value: 25.23%); parameters: scale not given: the % may be the effect or the level left; settings: dose 0.0625 µg/ml
[45] = tested on: Candida albicans; assay: Antifungal activity against Candida albicans Y0109; type: functional
[46] = tested on: Candida albicans; assay: Antifungal activity against Candida albicans 20#; type: functional
[47] = Oral bioavailability in Sprague-Dawley rat at 5 mg/kg by LC-MS analysis; type: ADME, organism-based; settings: in vivo
[48] = tested on: Candida parapsilosis; assay: Antifungal activity against Candida parapsilosis 90018; type: functional; settings: Lodderomyces parapsilosis

SMILES: C[C@@H](c1cn(-c2ccc(Cl)cc2F)nn1)[C@](O)(Cn1cncn1)c1ccc(F)cc1F
- Activity [1]: 100%
- Activity [2]: Dde
- Activity [3]: 74.56%
- inhibition at 0.5 µg/mL [4]: 80%
- MIC [5]: 0.125 µg/mL (≈ 0.278 µM)
- MIC [6]: ≤ 0.0313 µg/mL
- MIC [7]: 0.125 µg/mL (≈ 0.278 µM)
- MIC [8]: 8 µg/mL (≈ 17.8 µM)
- AUC(0-inf) [9]: 3860 ng·h/mL
- Activity [10]: 6.46%
- MIC [11]: 0.0625 µg/mL (≈ 0.139 µM)
- AUC(0-inf) [12]: 8410 ng·h/mL
- Activity [13]: 0.76%
- MIC [14]: 1 µg/mL (≈ 2.23 µM)
- Time [15]: 13.5 days
- Time [16]: 18 days
- MIC [17]: 0.125 µg/mL
- Activity [18]: 88.96%
- half-life [19]: 270 min
- MIC [20]: 8 µg/mL (≈ 17.8 µM)
- MIC [21]: 16 µg/mL (≈ 35.6 µM)
- MIC [22]: ≤ 0.0313 µg/mL
- MIC [23]: 8 µg/mL (≈ 17.8 µM)
- inhibition [24]: Dde
- Time [25]: 14 days
- Activity [26]: Active
- MIC [27]: 0.0625 µg/mL (≈ 0.139 µM)
- MIC [28]: 0.0313 µg/mL (≈ 0.0697 µM)
- viability at 24 h, 64 ug/ml [29]: 89.1%
- MIC [30]: 1 µg/mL (≈ 2.23 µM)
- MIC [31]: 0.0156 µg/mL (≈ 0.0348 µM)
- Tmax [32]: 2.71 h
- Time [33]: 8.5 days
- Time [34]: 10.5 days
- half-life [35]: 84 min
- MIC [36]: 0.25 µg/mL (≈ 0.557 µM)
- Time [37]: 14 days
- hemolysis at 1 h, 64 ug/ml [38]: 0.3%
- MIC [39]: 0.125 µg/mL (≈ 0.278 µM)
- MIC [40]: 1 µg/mL (≈ 2.23 µM)
- inhibition at 0.002 µg/mL [41]: 20%
- Time [42]: 17 days
- MIC [43]: 1 µg/mL (≈ 2.23 µM)
- Activity [44]: 3.82%
- MIC [45]: 0.0156 µg/mL (≈ 0.0348 µM)
- MIC [46]: ≤ 0.0313 µg/mL
- bioavailability [47]: 34%
- MIC [48]: ≤ 0.0313 µg/mL
